Source: the NIST ThermoML archive (doi:10.1007/s10765-010-0737-5)

Test: xn = mol fraction of the nth substance listed
Conditions: Liquid; for viscosity: 101 kPa, Capillary tube (Ostwald / Ubbelohde) method; for mass density: 101.3 kPa

CCC(C)Cl (configuration not stated) [2-chlorobutane] + CC(C)OC(C)C
Conditions	mass density [kg/m3]	viscosity [mPa·s]
283.15 K, x1 = 0.0519	740.159	0.3683
283.15 K, x1 = 0.0988	745.897	0.3716
283.15 K, x1 = 0.2006	758.792	0.3796
283.15 K, x1 = 0.3211	774.756	0.3899
283.15 K, x1 = 0.4201	788.575	0.3991
283.15 K, x1 = 0.532	804.971	0.4101
283.15 K, x1 = 0.6244	819.223	0.4199
283.15 K, x1 = 0.726	835.602	0.431
283.15 K, x1 = 0.8163	850.907	0.4413
283.15 K, x1 = 0.8817	862.411	0.4489
283.15 K, x1 = 0.9634	877.39	0.4587
283.15 K, x1 = 1	884.34	0.4631
288.15 K, x1 = 0.0519	734.981	0.3519
288.15 K, x1 = 0.0988	740.712	0.3549
288.15 K, x1 = 0.2006	753.569	0.3621
288.15 K, x1 = 0.3211	769.483	0.3713
288.15 K, x1 = 0.4201	783.251	0.3795
288.15 K, x1 = 0.532	799.602	0.3894
288.15 K, x1 = 0.6244	813.814	0.398
288.15 K, x1 = 0.726	830.144	0.408
288.15 K, x1 = 0.8163	845.414	0.4172
288.15 K, x1 = 0.8817	856.901	0.424
288.15 K, x1 = 0.9634	871.819	0.4326
288.15 K, x1 = 1	878.756	0.4365
293.15 K, x1 = 0.0519	729.792	0.3371
293.15 K, x1 = 0.0988	735.485	0.34
293.15 K, x1 = 0.2006	748.303	0.3468
293.15 K, x1 = 0.3211	764.161	0.3555
293.15 K, x1 = 0.4201	777.889	0.3632
293.15 K, x1 = 0.532	–	0.3725
293.15 K, x1 = 0.6244	808.369	0.3806
293.15 K, x1 = 0.726	824.657	0.39
293.15 K, x1 = 0.8163	839.877	0.3987
293.15 K, x1 = 0.8817	851.332	0.4051
293.15 K, x1 = 0.9634	866.214	0.4131
293.15 K, x1 = 1	873.13	0.4167
298.15 K, x1 = 0.0519	724.535	0.321
298.15 K, x1 = 0.0988	730.22	0.3239
298.15 K, x1 = 0.2006	742.995	0.3306
298.15 K, x1 = 0.3211	758.802	0.3392
298.15 K, x1 = 0.4201	772.485	0.3467
298.15 K, x1 = 0.532	788.75	0.3559
298.15 K, x1 = 0.6244	802.882	0.3639
298.15 K, x1 = 0.726	819.123	0.3731
298.15 K, x1 = 0.8163	834.307	0.3817
298.15 K, x1 = 0.8817	845.724	0.3879
298.15 K, x1 = 0.9634	860.57	0.3959
298.15 K, x1 = 1	867.474	0.3993
303.15 K, x1 = 0.0519	719.276	0.3033
303.15 K, x1 = 0.0988	724.919	0.3061
303.15 K, x1 = 0.2006	737.649	0.3127
303.15 K, x1 = 0.3211	753.411	0.3212
303.15 K, x1 = 0.4201	767.06	0.3286
303.15 K, x1 = 0.532	783.263	0.3375
303.15 K, x1 = 0.6244	797.355	0.3454
303.15 K, x1 = 0.726	813.555	0.3545
303.15 K, x1 = 0.8163	828.698	0.3628
303.15 K, x1 = 0.8817	840.084	0.369
303.15 K, x1 = 0.9634	854.895	0.3767
303.15 K, x1 = 1	861.779	0.38
308.15 K, x1 = 0.0519	713.939	0.2887
308.15 K, x1 = 0.0988	719.569	0.2915
308.15 K, x1 = 0.2006	732.261	0.2977
308.15 K, x1 = 0.3211	747.973	0.3058
308.15 K, x1 = 0.4201	761.571	0.3127
308.15 K, x1 = 0.532	777.737	0.3212
308.15 K, x1 = 0.6244	791.784	0.3287
308.15 K, x1 = 0.726	807.944	0.3374
308.15 K, x1 = 0.8163	823.046	0.3453
308.15 K, x1 = 0.8817	834.402	0.3511
308.15 K, x1 = 0.9634	849.179	0.3584
308.15 K, x1 = 1	856.044	0.3615
313.15 K, x1 = 0.0519	708.573	0.2752
313.15 K, x1 = 0.0988	714.181	0.2779
313.15 K, x1 = 0.2006	726.833	0.2838
313.15 K, x1 = 0.3211	742.484	0.2914
313.15 K, x1 = 0.4201	756.049	0.2981
313.15 K, x1 = 0.532	772.166	0.3062
313.15 K, x1 = 0.6244	786.18	0.3133
313.15 K, x1 = 0.726	802.287	0.3215
313.15 K, x1 = 0.8163	817.349	0.329
313.15 K, x1 = 0.8817	828.683	0.3345
313.15 K, x1 = 0.9634	843.42	0.3413
313.15 K, x1 = 1	850.266	0.3443
